# Literature values, collected in paper PMC3289745 (Peptides, 2011).
# System: conscious male rats
# Conditions: central injection of neuronostatin; 30 minutes post-injection
substance,measurement,value
neuronostatin,increase in plasma AVP levels relative to saline-injected controls,2–3 times
